pIC50: −log10 of the molar value.
Columns and labels:
hCav1.2 = biological target: T1, hCav1.2 (Homo sapiens, UniProt Q13936); assay: Cav1.2 calcium flux assay; assay type: cell-based; details: Ca2+ flux assay
T1 construct: host or cells: CHO
Experimental: % inhibition = 100 - (ΔRatio of test compound - ΔRatio of 1 µM control compound)/(ΔRatio of 0.3% DMSO - ΔRatio of 1 µM control compound)x100
Cav1.2 calcium flux assay protocol
CHO cells stably expressing human Cav1.2/b2/a2/d1 hCav1.2/CHO were purchased from ChanTest. hCav1.2/CHO were plated in 384-well plates at a density of 1.0x10^4 cells/well, and cultured overnight. After the wash by HBSS + 20 mM HEPES buffer, cells were loaded with Fluo-4 dye for 1 hour at room temperature. After the wash by HBSS + 20mM HEPES buffer, the fluorescent intensity was measured by Panoptic and test compounds, control compounds (verapamil) or 0.3% DMSO were added to each well. The change of fluorescent intensity (ΔRatio) and % inhibition to compare the efficacy and potency of test compounds were calculated using the […]
ΔRatio = (fluorescent intensity at 300 seconds after compound addition)/(average of fluorescent […]
% inhibition = 100 - (ΔRatio of test compound - ΔRatio of 10 µM control compound)/(ΔRatio of 0.3% DMSO - ΔRatio of 10 µM control compound)x100
In vitro Plasma protein binding and Brain homogenate binding: Determination of fraction unbound (f u) in plasma was conducted in vitro via equilibrium dialysis using HTDialysis (HTD) membrane plates. The top half of the plate was filled with 100 uL of Dubelco’s Phosphate Buffered Saline, pH 7.4 (DPBS). […]

hERG = biological target: T2, hERG (Homo sapiens, UniProt Q12809); assay: hERG thallium flux assay; assay type: cell-based; details: Tl+ flux assay
T2 construct: expressed in transfected cells; host or cells: HEK293
T2 sequence (Q12809 whole entry): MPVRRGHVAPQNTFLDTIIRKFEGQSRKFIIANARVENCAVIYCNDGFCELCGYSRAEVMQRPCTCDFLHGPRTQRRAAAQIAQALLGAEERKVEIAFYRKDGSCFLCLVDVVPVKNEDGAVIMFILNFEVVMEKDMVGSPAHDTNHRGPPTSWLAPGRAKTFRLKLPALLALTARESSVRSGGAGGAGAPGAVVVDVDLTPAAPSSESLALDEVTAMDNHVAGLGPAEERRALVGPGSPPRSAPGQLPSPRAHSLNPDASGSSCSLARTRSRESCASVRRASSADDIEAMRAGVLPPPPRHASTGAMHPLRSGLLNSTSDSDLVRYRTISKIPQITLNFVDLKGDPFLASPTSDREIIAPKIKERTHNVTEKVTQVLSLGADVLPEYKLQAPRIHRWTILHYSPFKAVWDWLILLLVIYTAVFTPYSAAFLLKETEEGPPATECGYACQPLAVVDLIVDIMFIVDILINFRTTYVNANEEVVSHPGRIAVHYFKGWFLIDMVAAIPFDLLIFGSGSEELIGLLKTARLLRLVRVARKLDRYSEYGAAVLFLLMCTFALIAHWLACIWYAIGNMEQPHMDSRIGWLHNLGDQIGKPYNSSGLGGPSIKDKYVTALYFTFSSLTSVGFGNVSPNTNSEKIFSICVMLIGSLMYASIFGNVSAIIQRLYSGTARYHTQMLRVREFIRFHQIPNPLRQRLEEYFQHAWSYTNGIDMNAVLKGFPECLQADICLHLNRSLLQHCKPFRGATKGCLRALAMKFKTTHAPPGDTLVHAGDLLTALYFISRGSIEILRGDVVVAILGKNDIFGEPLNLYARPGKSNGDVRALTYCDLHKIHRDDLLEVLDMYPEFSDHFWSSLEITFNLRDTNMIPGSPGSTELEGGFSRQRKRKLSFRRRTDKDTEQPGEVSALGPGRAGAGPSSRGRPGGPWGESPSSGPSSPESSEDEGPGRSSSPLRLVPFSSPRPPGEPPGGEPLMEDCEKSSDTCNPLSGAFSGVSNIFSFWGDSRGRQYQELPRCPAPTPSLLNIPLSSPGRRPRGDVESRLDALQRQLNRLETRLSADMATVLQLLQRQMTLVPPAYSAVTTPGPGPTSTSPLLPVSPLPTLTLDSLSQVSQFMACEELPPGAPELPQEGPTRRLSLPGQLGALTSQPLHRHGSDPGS

Muscarinic M3 = Muscarinic M3 (Homo sapiens, UniProt P20309); assay: Eurofins Lead Profiling radioligand binding; details: title: 30 μM
Sequence of Muscarinic M3 (P20309 whole entry): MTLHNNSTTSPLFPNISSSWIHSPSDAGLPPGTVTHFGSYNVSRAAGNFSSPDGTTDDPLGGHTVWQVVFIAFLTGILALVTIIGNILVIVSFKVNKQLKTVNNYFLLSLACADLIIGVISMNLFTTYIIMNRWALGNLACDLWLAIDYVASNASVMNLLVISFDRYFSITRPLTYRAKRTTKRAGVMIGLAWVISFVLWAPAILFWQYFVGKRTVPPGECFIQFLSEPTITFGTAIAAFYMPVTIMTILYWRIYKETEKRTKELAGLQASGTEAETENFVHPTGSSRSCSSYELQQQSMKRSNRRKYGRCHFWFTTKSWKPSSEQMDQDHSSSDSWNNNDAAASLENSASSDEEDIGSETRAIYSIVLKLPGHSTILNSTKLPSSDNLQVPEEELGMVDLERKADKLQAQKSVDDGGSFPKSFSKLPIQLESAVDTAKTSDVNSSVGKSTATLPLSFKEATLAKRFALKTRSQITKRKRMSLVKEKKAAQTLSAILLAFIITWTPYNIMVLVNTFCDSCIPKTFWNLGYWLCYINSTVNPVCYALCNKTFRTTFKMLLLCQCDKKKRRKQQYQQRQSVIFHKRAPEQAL

Histamine H2 = Histamine H2 (Homo sapiens, UniProt P25021); assay: Eurofins Lead Profiling radioligand binding; details: title: 30 μM
Sequence of Histamine H2 (P25021 whole entry): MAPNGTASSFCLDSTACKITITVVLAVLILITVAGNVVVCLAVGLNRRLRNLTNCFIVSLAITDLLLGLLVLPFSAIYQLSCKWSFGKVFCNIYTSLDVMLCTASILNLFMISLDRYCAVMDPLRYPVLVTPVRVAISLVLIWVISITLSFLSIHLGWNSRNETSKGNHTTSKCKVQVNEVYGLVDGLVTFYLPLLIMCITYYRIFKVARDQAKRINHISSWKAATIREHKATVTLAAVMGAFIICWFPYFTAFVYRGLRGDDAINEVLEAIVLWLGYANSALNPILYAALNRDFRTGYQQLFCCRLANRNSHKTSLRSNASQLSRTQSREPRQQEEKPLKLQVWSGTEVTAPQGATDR

Adenosine A1 = Adenosine A1 (Homo sapiens, UniProt P30542); assay: Eurofins Lead Profiling radioligand binding; details: title: 30 μM
Sequence of Adenosine A1 (P30542 whole entry): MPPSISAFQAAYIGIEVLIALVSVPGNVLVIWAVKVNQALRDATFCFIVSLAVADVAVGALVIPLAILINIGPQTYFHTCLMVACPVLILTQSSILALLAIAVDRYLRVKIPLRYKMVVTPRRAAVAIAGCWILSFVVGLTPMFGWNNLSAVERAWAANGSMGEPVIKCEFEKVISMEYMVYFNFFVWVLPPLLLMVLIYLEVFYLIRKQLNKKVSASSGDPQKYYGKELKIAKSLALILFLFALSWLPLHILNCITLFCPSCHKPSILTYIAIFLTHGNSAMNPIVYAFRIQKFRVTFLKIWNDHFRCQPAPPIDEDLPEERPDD

dog IV PK study = assay type: in vivo; details: male, beagle, plasma, 0.1 mg/kg IV, HP-β-CD solution
Experimental: Plasma and brain tissue samples originating from in vivo studies were analyzed by electrospray ionization using an AB Sciex Q-TRAP 5500 (Foster City, CA) that was coupled to a Shimadzu LC-20AD pump (Columbia, MD) and a Leap Technologies CTC PAL auto-sampler (Carrboro, NC). Analytes were separated by gradient elution using a C18 column (3 x 50 mm, 3 mm; Fortis Technologies Ltd, Cheshire, UK) that was thermostated at 40 °C. HPLC mobile phase A was 0.1% formic acid in water (pH unadjusted); mobile phase B was 0.1% formic acid in acetonitrile (pH […]
min, with an isocratic hold for 0.5 min, before transitioning to 10% B over 0.05 min. The column was re-equilibrated (1 min) before the next sample injection. The total run time was 2.55 min, and the HPLC flow rate was 0.5 ml/min. The source temperature was set at 500 °C, and mass spectral analyses were performed using a Turbo-Ion spray source in positive ionization mode (5.0-kV spray voltage) and using multiple-reaction monitoring of transitions specific for the analytes. All data were analyzed using AB Sciex Analyst 1.5.1 software. […]
For determination of the plasma concentration-time profile, compounds were formulated in methyl cellulose and administered as a 3 mg/kg PO dose to male C57BL/6 mouse or SD rat (n = 2). For the same determination, compounds were formulated in HP-β-CD and administered as a 0.1 mg/kg IV dose to male beagle dog (n = 2).
Plasma samples originating from in vivo studies were analyzed by electrospray ionization using a Q-TRAP 5500 (AB Sciex) that was coupled to a Prominence UFLC XR (Shimadzu Corporation).
Analytes were separated by gradient elution using a Shim-pack XR-ODS II (2 x 75 mm, 2.2μm, Shimadzu Corporation) that was thermostated at 40 °C. HPLC mobile phase A was 5 mM ammonium acetate containing 0.2% formic acid in water (pH unadjusted); mobile phase B was […]
hold for 1.5 min, before transitioning to 10% B over 0.1 min. The column was re-equilibrated (0.9 min) before the next sample injection. The total run time was 4.0 min, and the HPLC flow rate was 0.5 ml/min. […]

Sigma σ1 = Sigma σ1 (Homo sapiens, UniProt Q99720); assay: Eurofins Lead Profiling radioligand binding; details: title: 30 μM
Sequence of Sigma σ1 (Q99720 whole entry): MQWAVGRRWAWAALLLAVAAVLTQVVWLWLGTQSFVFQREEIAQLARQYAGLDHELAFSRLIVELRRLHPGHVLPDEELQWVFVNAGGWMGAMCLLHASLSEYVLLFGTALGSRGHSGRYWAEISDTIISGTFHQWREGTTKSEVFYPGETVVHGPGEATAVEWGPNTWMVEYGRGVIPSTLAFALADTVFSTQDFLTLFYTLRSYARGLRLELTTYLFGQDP

[1] = biological target: Epidermal Growth Factor (EGF) (Homo sapiens, UniProt P00533); assay: Eurofins Lead Profiling radioligand binding; details: title: 30 μM
Histamine H1 = Histamine H1 (Homo sapiens, UniProt P35367); assay: Eurofins Lead Profiling radioligand binding; details: title: 30 μM
Sequence of Histamine H1 (P35367 whole entry): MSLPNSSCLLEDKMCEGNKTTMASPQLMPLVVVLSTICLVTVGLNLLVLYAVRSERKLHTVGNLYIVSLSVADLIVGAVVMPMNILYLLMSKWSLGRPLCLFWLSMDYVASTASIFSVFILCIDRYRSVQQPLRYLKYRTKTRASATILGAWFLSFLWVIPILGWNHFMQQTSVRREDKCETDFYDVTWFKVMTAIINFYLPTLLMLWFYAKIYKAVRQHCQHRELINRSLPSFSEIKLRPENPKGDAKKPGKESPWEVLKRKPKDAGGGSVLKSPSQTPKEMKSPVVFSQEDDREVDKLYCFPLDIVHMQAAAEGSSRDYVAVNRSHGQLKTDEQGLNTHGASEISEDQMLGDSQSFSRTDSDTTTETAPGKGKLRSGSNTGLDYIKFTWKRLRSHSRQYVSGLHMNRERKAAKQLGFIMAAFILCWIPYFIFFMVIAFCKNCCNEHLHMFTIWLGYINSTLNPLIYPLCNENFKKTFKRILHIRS

[2] = test system: Glutamate, NMDA, Phencyclidine; assay: Eurofins Lead Profiling radioligand binding; set-up: species or system Rat; details: title: 30 μM
[3] = biological target: Transporter, Dopamine (DAT) (Homo sapiens, UniProt Q01959); assay: Eurofins Lead Profiling radioligand binding; details: title: 30 μM
Sequence of Transporter, Dopamine (DAT) (Q01959 whole entry): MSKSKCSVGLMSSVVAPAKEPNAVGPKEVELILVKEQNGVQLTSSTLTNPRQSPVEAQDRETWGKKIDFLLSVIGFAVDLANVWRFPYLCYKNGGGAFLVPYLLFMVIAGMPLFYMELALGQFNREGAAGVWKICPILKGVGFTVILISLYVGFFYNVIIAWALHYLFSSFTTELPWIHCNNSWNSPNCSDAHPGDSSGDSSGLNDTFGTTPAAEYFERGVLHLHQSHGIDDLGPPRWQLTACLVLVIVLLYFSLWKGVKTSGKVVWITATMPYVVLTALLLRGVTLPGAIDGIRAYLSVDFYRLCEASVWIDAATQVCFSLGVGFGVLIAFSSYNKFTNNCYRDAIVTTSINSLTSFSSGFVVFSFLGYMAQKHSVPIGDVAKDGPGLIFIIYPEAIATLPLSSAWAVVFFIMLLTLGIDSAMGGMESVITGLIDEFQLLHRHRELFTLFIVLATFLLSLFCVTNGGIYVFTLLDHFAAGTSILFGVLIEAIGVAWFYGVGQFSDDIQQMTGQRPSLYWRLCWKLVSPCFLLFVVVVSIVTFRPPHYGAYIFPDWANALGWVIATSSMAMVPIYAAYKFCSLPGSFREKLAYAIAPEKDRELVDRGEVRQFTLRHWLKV

Rolipram = assay: Eurofins Lead Profiling radioligand binding; set-up: species or system Rat; details: title: 30 μM
Endothelin ETB = Endothelin ETB (Homo sapiens, UniProt P24530); assay: Eurofins Lead Profiling radioligand binding; details: title: 30 μM
Sequence of Endothelin ETB (P24530 27-442): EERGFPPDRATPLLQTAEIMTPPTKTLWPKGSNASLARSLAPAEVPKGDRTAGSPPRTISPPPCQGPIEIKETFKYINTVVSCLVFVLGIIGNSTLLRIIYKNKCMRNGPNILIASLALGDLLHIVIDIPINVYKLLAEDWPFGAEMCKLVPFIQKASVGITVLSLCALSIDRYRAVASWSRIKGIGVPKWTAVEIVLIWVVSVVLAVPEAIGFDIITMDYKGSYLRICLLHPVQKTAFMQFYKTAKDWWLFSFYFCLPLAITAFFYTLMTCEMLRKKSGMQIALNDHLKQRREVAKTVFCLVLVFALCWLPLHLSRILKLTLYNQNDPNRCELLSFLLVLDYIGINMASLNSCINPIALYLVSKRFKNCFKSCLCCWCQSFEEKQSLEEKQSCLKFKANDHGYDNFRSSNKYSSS

GABAA, Muscimol, Central = assay: Eurofins Lead Profiling radioligand binding; set-up: species or system Rat; details: title: 30 μM
Muscarinic M1 = Muscarinic M1 (Homo sapiens, UniProt P11229); assay: Eurofins Lead Profiling radioligand binding; details: title: 30 μM
Sequence of Muscarinic M1 (P11229 whole entry): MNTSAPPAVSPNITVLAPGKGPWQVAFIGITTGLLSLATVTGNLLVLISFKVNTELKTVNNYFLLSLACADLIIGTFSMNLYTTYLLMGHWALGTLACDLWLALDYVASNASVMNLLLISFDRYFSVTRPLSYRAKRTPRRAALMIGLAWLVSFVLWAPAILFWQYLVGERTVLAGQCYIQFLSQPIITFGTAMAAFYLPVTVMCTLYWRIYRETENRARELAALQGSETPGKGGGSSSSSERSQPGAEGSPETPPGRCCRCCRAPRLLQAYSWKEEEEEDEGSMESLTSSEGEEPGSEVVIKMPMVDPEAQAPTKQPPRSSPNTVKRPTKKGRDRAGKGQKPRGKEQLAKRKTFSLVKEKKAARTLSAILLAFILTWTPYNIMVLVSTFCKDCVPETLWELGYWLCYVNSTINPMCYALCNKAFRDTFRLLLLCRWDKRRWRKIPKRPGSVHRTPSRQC

[4] = test system: Calcium Channel L-Type, Benzothiazepine; assay: Eurofins Lead Profiling radioligand binding; set-up: species or system Rat; details: title: 30 μM
Ryanodine = assay: Eurofins Lead Profiling radioligand binding; set-up: species or system Rat; details: title: 30 μM

| Structure (SMILES) | pIC50 (hCav1.2) | pIC50 (hERG) | inhibition (Muscarinic M3) | inhibition (Histamine H2) | inhibition (Adenosine A1) | half-life (dog IV PK study) | clearance (dog IV PK study; read-out: CLp) | Vd (dog IV PK study; read-out: Vss) | inhibition (Sigma σ1) | inhibition [1] | inhibition (Histamine H1) | % Inhibition at 10 µM [2] | inhibition [3] | % Inhibition at 10 µM (Rolipram) | inhibition at 10 µM (Endothelin ETB) | % Inhibition at 10 µM (GABAA, Muscimol, Central) | inhibition (Muscarinic M1) | % Inhibition at 10 µM [4] | % Inhibition at 10 µM (Ryanodine) |
| --- | --- | --- | --- | --- | --- | --- | --- | --- | --- | --- | --- | --- | --- | --- | --- | --- | --- | --- | --- |
| O=C(NCc1ccc(OC(F)(F)F)cc1Cl)c1ccc2nncn2c1 [Compound 20] | < 4.52 | < 4.52 |  |  |  |  |  |  |  |  |  |  |  |  |  |  |  |  |  |
| O=C(NCc1ccc(OC(F)(F)F)cc1F)c1ccc2ncnn2c1 [Compound 19b] |  |  | 8% | -20% | 14% | 22 h | 1.3 mL/min/kg | 2.2 L/kg | 45% | 2% | 8% | 0% | 14% | 13% | 4% | -1% | 1% | 2% | 6% |

— article PMC11887051, “Discovery of ONO-2920632 (VU6011887): A Highly Selective and CNS Penetrant TREK-2 (TWIK-Related K+ Channel 2) Preferring Activator In Vivo Tool Compound” (ACS Chemical Neuroscience, 2025)
